{"source": "patent US6344190B1", "about": "“Method and compositions for treatment of fungal nail disease” (Board of Trustees of Michigan State University, priority 1999, dated 2002)", "key": {"toenail onychomycosis": {"test_system": "toenail onychomycosis", "conditions": "oral treatment, toenail onychomycosis (Einarson et al. 1994); cited from earlier work"}, "[1]": {"test_system": "Trichophyton mentagrophytes", "assay": "Zone of inhibition assay (agar plates)", "type": "cell-based", "set-up": "key to Zone of Inhibition: X denotes no observable zone of inhibition", "conditions": "after 7 days, 250 μg/mL"}, "A. strictum": {"test_system": "A. strictum", "assay": "Zone of inhibition assay (agar plates)", "type": "cell-based, Acremonium strictum", "set-up": "key to Zone of Inhibition: X denotes no observable zone of inhibition", "conditions": "after 7 days, 250 μg/mL; for zone of inhibition at 250 µg/mL: Sarocladium strictum, 168 h"}, "Aspergillus flavus": {"test_system": "Aspergillus flavus", "assay": "Zone of inhibition assay (agar plates)", "type": "cell-based", "set-up": "key to Zone of Inhibition: X denotes no observable zone of inhibition", "conditions": "after 7 days, 250 μg/mL"}, "Microsporum canis": {"test_system": "Microsporum canis", "assay": "Zone of inhibition assay (agar plates)", "type": "cell-based", "conditions": "168 h, after 7 days, 250 μg/mL"}, "T. rubrum": {"test_system": "T. rubrum", "assay": "Zone of inhibition assay (agar plates)", "type": "cell-based", "conditions": "Trichophyton rubrum, 168 h; after 7 days, 250 μg/mL"}, "A. terreus": {"test_system": "A. terreus", "assay": "Zone of inhibition assay (agar plates)", "type": "cell-based, Aspergillus terreus", "set-up": "key to Zone of Inhibition: X denotes no observable zone of inhibition", "conditions": "after 7 days, 250 μg/mL"}, "Epidermophyton floccosum": {"test_system": "Epidermophyton floccosum", "assay": "Zone of inhibition assay (agar plates)", "type": "cell-based", "set-up": "key to Zone of Inhibition: X denotes no observable zone of inhibition", "conditions": "after 7 days, 250 μg/mL"}, "F. proliferatum": {"test_system": "F. proliferatum", "assay": "Zone of inhibition assay (agar plates)", "type": "cell-based", "set-up": "key to Zone of Inhibition: X denotes no observable zone of inhibition", "conditions": "after 7 days, 250 μg/mL"}, "Acremonium chrysogenum": {"test_system": "Acremonium chrysogenum", "assay": "Zone of inhibition assay (agar plates)", "type": "cell-based", "conditions": "Hapsidospora chrysogena, 168 h; after 7 days, 250 μg/mL"}, "Scytalidium dimidiatum": {"test_system": "Scytalidium dimidiatum", "assay": "Zone of inhibition assay (agar plates)", "type": "cell-based", "set-up": "key: X denotes no observable zone of inhibition", "conditions": "after 7 days, 250 μg/mL"}, "[2]": {"test_system": "Scopulariopsis brevicaulis", "assay": "Zone of inhibition assay (agar plates)", "type": "cell-based", "set-up": "key to Zone of Inhibition: X denotes no observable zone of inhibition", "conditions": "after 7 days, 250 μg/mL"}, "Candida albicans": {"test_system": "Candida albicans", "assay": "Zone of inhibition assay (agar plates)", "type": "cell-based", "conditions": "168 h, after 7 days, 250 μg/mL"}, "Fusarium oxysporum": {"test_system": "Fusarium oxysporum", "assay": "Zone of inhibition assay (agar plates)", "type": "cell-based", "set-up": "key to Zone of Inhibition: X denotes no observable zone of inhibition", "conditions": "after 7 days, 250 μg/mL"}, "C. kruseii": {"test_system": "C. kruseii", "assay": "Zone of inhibition assay (agar plates)", "type": "cell-based", "set-up": "key to Zone of Inhibition: X denotes no observable zone of inhibition", "conditions": "after 7 days, 250 μg/mL; for zone of inhibition at 250 µg/mL: 168 h"}, "S. hyalinum": {"test_system": "S. hyalinum", "assay": "Zone of inhibition assay (agar plates)", "type": "cell-based, Scytalidium hyalinum", "set-up": "key to Zone of Inhibition: X denotes no observable zone of inhibition", "conditions": "after 7 days, 250 μg/mL"}, "C. parapsilosis": {"test_system": "C. parapsilosis", "assay": "Zone of inhibition assay (agar plates)", "type": "cell-based", "conditions": "Lodderomyces parapsilosis, 168 h; after 7 days, 250 μg/mL"}, "[3]": {"conditions": "oral treatment, literature reports; cited from earlier work"}}, "note": "“Also recorded” adds a separate entry of the source."}
{"smiles": "CN(C/C=C/C#CC(C)(C)C)Cc1cccc2ccccc12", "note": "[TER, terbinafine]", "values": [{"measurement": "success rates of the treatments", "setting": "toenail onychomycosis", "result": 78.3, "unit": "%"}]}
{"smiles": "CC12CCC(CC1=O)C2(C)C", "note": "(stereo not drawn) [Ca, Camphor]", "values": [{"measurement": "Zone of Inhibition", "setting": "[1]", "result": "X"}, {"measurement": "Zone of Inhibition", "setting": "A. strictum", "result": "X"}, {"measurement": "Zone of Inhibition", "setting": "Aspergillus flavus", "result": "X"}, {"measurement": "zone of inhibition at 250 µg/mL", "setting": "Microsporum canis", "result": 2, "unit": "mm"}, {"measurement": "zone of inhibition at 250 µg/mL", "setting": "T. rubrum", "result": 8, "unit": "mm"}, {"measurement": "Zone of Inhibition", "setting": "A. terreus", "result": "X"}, {"measurement": "Zone of Inhibition", "setting": "Epidermophyton floccosum", "result": "X"}, {"measurement": "Zone of Inhibition", "setting": "F. proliferatum", "result": "X"}, {"measurement": "zone of inhibition at 250 µg/mL", "setting": "Acremonium chrysogenum", "result": 10, "unit": "mm"}, {"measurement": "Zone of Inhibition", "setting": "Scytalidium dimidiatum", "result": "X"}, {"measurement": "Zone of Inhibition", "setting": "[2]", "result": "X"}, {"measurement": "zone of inhibition at 250 µg/mL", "setting": "Candida albicans", "result": 7, "unit": "mm"}, {"measurement": "Zone of Inhibition", "setting": "Fusarium oxysporum", "result": "X"}, {"measurement": "Zone of Inhibition", "setting": "C. kruseii", "result": "X"}, {"measurement": "Zone of Inhibition", "setting": "S. hyalinum", "result": "X"}, {"measurement": "zone of inhibition at 250 µg/mL", "setting": "C. parapsilosis", "result": 7, "unit": "mm"}]}
{"smiles": "Cc1ccc(C(C)C)c(O)c1", "note": "[T, Thymol]", "values": [{"measurement": "zone of inhibition at 250 µg/mL", "setting": "[1]; Trichophyton mentagrophytes, 168 h", "result": 10, "unit": "mm"}, {"measurement": "zone of inhibition at 250 µg/mL", "setting": "A. strictum", "result": 12, "unit": "mm"}, {"measurement": "zone of inhibition at 250 µg/mL", "setting": "Aspergillus flavus; Aspergillus flavus, 168 h", "result": 6, "unit": "mm"}, {"measurement": "zone of inhibition at 250 µg/mL", "setting": "Microsporum canis", "result": 20, "unit": "mm"}, {"measurement": "zone of inhibition at 250 µg/mL", "setting": "T. rubrum", "result": 16, "unit": "mm"}, {"measurement": "zone of inhibition at 250 µg/mL", "setting": "A. terreus; Aspergillus terreus, 168 h", "result": 3, "unit": "mm"}, {"measurement": "Zone of Inhibition", "setting": "Epidermophyton floccosum", "result": "X"}, {"measurement": "zone of inhibition at 250 µg/mL", "setting": "F. proliferatum; Fusarium proliferatum, 168 h", "result": 3, "unit": "mm"}, {"measurement": "zone of inhibition at 250 µg/mL", "setting": "Acremonium chrysogenum", "result": 20, "unit": "mm"}, {"measurement": "Zone of Inhibition", "setting": "Scytalidium dimidiatum", "result": "X"}, {"measurement": "zone of inhibition at 250 µg/mL", "setting": "[2]; Scopulariopsis brevicaulis, 168 h", "result": 14, "unit": "mm"}, {"measurement": "zone of inhibition at 250 µg/mL", "setting": "Candida albicans", "result": 17, "unit": "mm"}, {"measurement": "zone of inhibition at 250 µg/mL", "setting": "Fusarium oxysporum; Fusarium oxysporum, 168 h", "result": 2, "unit": "mm"}, {"measurement": "zone of inhibition at 250 µg/mL", "setting": "C. kruseii", "result": 16, "unit": "mm"}, {"measurement": "zone of inhibition at 250 µg/mL", "setting": "S. hyalinum; Neoscytalidium hyalinum, 168 h", "result": 5, "unit": "mm"}, {"measurement": "zone of inhibition at 250 µg/mL", "setting": "C. parapsilosis", "result": 20, "unit": "mm"}]}
{"smiles": "COC1=CC(=O)C[C@@H](C)[C@]12Oc1c(Cl)c(OC)cc(OC)c1C2=O", "note": "[GRI, griseofulvin]", "values": [{"measurement": "success rates of the treatments", "setting": "toenail onychomycosis", "result": 17.5, "unit": "%"}, {"measurement": "side effects", "setting": "[3]", "result": "elevated liver enzymes"}]}
{"smiles": "CC1CCC(C(C)C)C(O)C1", "note": "(stereo not drawn) [M, Menthol]", "values": [{"measurement": "Zone of Inhibition", "setting": "[1]", "result": "X"}, {"measurement": "zone of inhibition at 250 µg/mL", "setting": "A. strictum", "result": 9, "unit": "mm"}, {"measurement": "Zone of Inhibition", "setting": "Aspergillus flavus", "result": "X"}, {"measurement": "zone of inhibition at 250 µg/mL", "setting": "Microsporum canis", "result": 3, "unit": "mm"}, {"measurement": "zone of inhibition at 250 µg/mL", "setting": "T. rubrum", "result": 15, "unit": "mm"}, {"measurement": "Zone of Inhibition", "setting": "A. terreus", "result": "X"}, {"measurement": "zone of inhibition at 250 µg/mL", "setting": "Epidermophyton floccosum; Epidermophyton floccosum, 168 h", "result": 2, "unit": "mm"}, {"measurement": "Zone of Inhibition", "setting": "F. proliferatum", "result": "X"}, {"measurement": "zone of inhibition at 250 µg/mL", "setting": "Acremonium chrysogenum", "result": 15, "unit": "mm"}, {"measurement": "Zone of Inhibition", "setting": "Scytalidium dimidiatum", "result": "X"}, {"measurement": "Zone of Inhibition", "setting": "[2]", "result": "X"}, {"measurement": "zone of inhibition at 250 µg/mL", "setting": "Candida albicans", "result": 14, "unit": "mm"}, {"measurement": "Zone of Inhibition", "setting": "Fusarium oxysporum", "result": "X"}, {"measurement": "zone of inhibition at 250 µg/mL", "setting": "C. kruseii", "result": 12, "unit": "mm"}, {"measurement": "Zone of Inhibition", "setting": "S. hyalinum", "result": "X"}, {"measurement": "zone of inhibition at 250 µg/mL", "setting": "C. parapsilosis", "result": 11, "unit": "mm"}]}
{"smiles": "CC(=O)N1CCN(c2ccc(OCC3COC(Cn4ccnc4)(c4ccc(Cl)cc4Cl)O3)cc2)CC1", "note": "(stereo not drawn) [KET, ketoconazole]", "values": [{"measurement": "success rates of the treatments", "setting": "toenail onychomycosis", "result": 40.8, "unit": "%"}, {"measurement": "side effects", "setting": "[3]", "result": "elevated liver enzymes; also recorded: anti-androgenic dysfunction in males and adrenal dysfunction"}]}
{"smiles": "CCC(C)n1ncn(-c2ccc(N3CCN(c4ccc(OCC5COC(Cn6cncn6)(c6ccc(Cl)cc6Cl)O5)cc4)CC3)cc2)c1=O", "note": "(stereo not drawn) [itraconazole]", "values": [{"measurement": "side effects", "setting": "[3]", "result": "elevations of serum transaminases, alkaline phosphatase and bilirubin"}]}
